What was measured:
spinach = experiment: Metal absorption-enhancing effect in spinach by daily spraying, metal content in dry weight by ICP; assay type: in vivo
Experimental: Two containers were provided and soil was placed in each of them, in which seeds of spinach were uniformly planted. From the day when the seeds were planted, water was applied once a day by means of a sprinkling can. To one of the container, tap water in which 5-aminolevulinic acid hydrochloride was dissolved in a concentration of 1 ppm was sprayed once a day in an amount of about 50 mL by means of a sprayer. Thinning was performed 3 weeks after the seed planting, and harvest was performed on the two containers after 38 days. At the harvest, the upper portions from the ground were cut out and the plant bodies were subjected to natural drying. After drying, the plant bodies was ground one by one in a mortar, the calcium content in dry weight was measured by ICP, and the concentration was calculated.
Similar operations were performed as in Example 1 and the manganese concentration in spinach was calculated.
Similar operations were performed as in Example 1 and the iron concentration in spinach was calculated.
Similar operations were performed as in Example 1 and the copper concentration in spinach was calculated.
Similar operations were performed as in Example 1 and the zinc concentration in spinach was calculated.

barley [1] = experiment: Metal absorption-enhancing effect in barley hydroponics (water culture medium A), ICP metal analysis; assay type: in vivo, Barley (race: Fiber snow); details: for calcium content-enhancing effect in barley: FIG. 1; for zinc content-enhancing effect in barley: FIG. 5; for copper content-enhancing effect in barley: FIG. 4; for manganese content-enhancing effect in barley: FIG. 2; for iron content-enhancing effect in barley: FIG. 3
Experimental: Barley (race: Fiber snow) was seeded on river sand, sprouted, and grown for 9 days. After the growth, the sand was washed out with caring so as not to hurt roots and the roots were cut so as to adjust the length to 2 cm. The roots were immersed in a water culture medium A and hydroponics was performed.
As water culture media, one in which no 5-aminolevulinic acid was dissolved and those in which the compound was dissolved so that each one has a concentration of 0.1, 0.3, or 1 ppm were prepared. The water culture medium was replaced 13 days after the start of the hydroponics, and hydroponics was continued for another 6 days. After the hydroponics, the plant was dried at 50° C. for two nights and then was subjected to ICP metal analysis.
Similar operations were performed as in Example 6 except that the concentration of the added 5-aminolevulinic acid was adjusted to 0, 0.3, or 1 ppm and the manganese concentration in barley was analyzed.
Similar operations were performed as in Example 6 except that the composition of the water culture medium was changed to twofold concentration of the water culture medium A and the concentration of the added 5-aminolevulinic acid was adjusted to 0, 1, or 3 ppm, and then the iron concentration in barley was analyzed.
Similar operations were performed as in Example 6 except that the water culture medium A and a water culture medium having a composition which was twice the composition of the water culture medium A were used and the concentration of the added 5-aminolevulinic acid was adjusted to 0, 0.1, or 0.3 ppm, and then the copper concentration in barley was analyzed. The results are shown in FIG. 4 (left one in the figure is for the water culture medium A and right one is for twofold concentration of the water culture medium A).
Similar operations were performed as in Example 6 except that the concentration of the added 5-aminolevulinic acid was adjusted to 0, 0.1, or 0.3 ppm, and the zinc concentration in barley was analyzed.
Similar operations were performed as in Example 6 except that the concentration of the added 5-aminolevulinic acid was adjusted to 0, 0.1, 0.3, 1, or 3 ppm, and the manganese concentration in barley was analyzed.
Similar operations were performed as in Example 6 except that the concentration of the added 5-aminolevulinic acid was adjusted to 0 or 30 ppm, and the calcium concentration in barley was analyzed.
Similar operations were performed as in Example 6 except that the concentration of the added 5-aminolevulinic acid was adjusted to 0 or 30 ppm, and the manganese concentration in barley was analyzed.
Similar operations were performed as in Example 6 except that the concentration of the added 5-aminolevulinic acid was adjusted to 0 or 30 ppm and the iron concentration in barley was analyzed.
Similar operations were performed as in Example 6 except that the concentration of the added 5-aminolevulinic acid was adjusted to 0 or 30 ppm, and the copper concentration in barley was analyzed.
Similar operations were performed as in Example 6 except that the concentration of the added 5-aminolevulinic acid was adjusted to 0 or 30 ppm, and the zinc concentration in barley was analyzed.
Similar operations were performed as in Example 6 except that the concentration of the added 5-aminolevulinic acid was adjusted to 0 or 30 ppm and the magnesium concentration in barley was analyzed.

radish = experiment: Metal absorption-enhancing effect in radish by foliage treatment, metal analysis; assay type: in vivo; details: foliage treatment 1 or 10 ppm, 100 L per 10 are, together with DTPA iron and magnesium sulfate, harvest 25th day
Source text: Radish was sowed in a pot of 1/57000×10 are in an amount of 6 seeds per pot and grown. An andosol (Kuroboku-soil) was used as soil and watering was suitably performed. On 11th day after the seeding (a two true leaves-developed stage), a solution containing 5-aminolevulinic acid hydrochloride prepared to a concentration of 0, 1, or 10 ppm in a developing agent-diluted (2000 times) liquid was applied to foliage treatment. Moreover, on this occasion, DTPA iron and magnesium sulfate were transformed into solutions having a concentration of 1.8 and 4.5 ppm in terms of Fe and MgO, respectively, and were applied to foliage treatment together with 5-aminolevulinic acid hydrochloride. The amount used for the treatment was 100 L per 10 are. The number of pots was 5 pots per test plot. On 15th day and 20th day after the seeding, thinning was performed and the number of plants per pot was adjusted to 4 individuals. On 25th day after the seeding, the plants were harvested and completely dried at 50° C. for two nights. Thereafter, they are pulverized and mixed in a mixer and then IPC metal analysis was performed.
Similar operations were performed as in Example and the zinc concentration in radish was analyzed.

potato = experiment: Metal absorption-enhancing effect in potato tubers by foliage treatment, metal analysis; assay type: in vivo; details: foliage treatment 1 ppm, from 30th day, then 8 times every other week, tubers harvested 105th day
Experimental: A seed tuber of potato was subjected to light-exposure and sprout-growth to stimulate germination. The germinated potato was planted in a pot of 1/20000×10 are in an amount of 1 tuber per pot. On 30th day after the planting (height of terrestrial portion: about 30 cm), 5-Aminolevulinic Acid hydrochloride was dissolved in a developing agent-diluted (2000 times) liquid in a concentration of 0 or 1 ppm and was applied to foliage treatment. Thereafter, the foliage treatment was performed 8 times every other week. The number of pots was 3 pots per test plot and new sprouts were removed while a strong thick sprout was left so that the number of sprout per pot was 1. On 105th day after the planting, potato as tubers was harvested and the tubers were selected from each test plot so that the total weight was 120±10 g. Then, they were pared and completely dried at 50° C. for two nights. Thereafter, they are pulverized and mixed in a mixer and then […] metal analysis was performed.
Similar operations were performed as in Example 14 and the magnesium concentration in potato was analyzed.

barley [2] = experiment: Metal absorption-enhancing effect in barley hydroponics (water culture medium A), ICP metal analysis; assay type: in vivo, Barley (race: Fiber snow); details: 0.1, 0.3, 1, or 3 ppm in water culture medium A; FIG. 6

Cl.NCC(=O)CCC(=O)O [5-aminolevulinic acid hydrochloride]
Average value of calcium concentration in spinach (spinach; 1 ppm in tap water sprayed once a day, about 50 mL, harvest after 38 days, dry weight, n = 18, no-ALA control 0.61): 0.68% | Average value of iron concentration in spinach (spinach; 1 ppm sprayed once a day, harvest after 38 days, dry weight, n = 18, no-ALA control 0.015): 0.049% | Average value of copper concentration in spinach (spinach; 1 ppm sprayed once a day, harvest after 38 days, dry weight, n = 18, no-ALA control 0.023): 0.029% | Average value of manganese concentration in spinach (spinach; 1 ppm sprayed once a day, harvest after 38 days, dry weight, n = 18, no-ALA control 0.027): 0.031% | Average value of zinc concentration in spinach (spinach; 1 ppm sprayed once a day, harvest after 38 days, dry weight, n = 18, no-ALA control 0.033): 0.048% | calcium content-enhancing effect in spinach (spinach; spraying, 1 ppm once a day): calcium content-enhancing effect was observed | copper content-enhancing effect in spinach (spinach; spraying, 1 ppm once a day): copper content-enhancing effect was observed | iron content-enhancing effect in spinach (spinach; spraying, 1 ppm once a day): iron content-enhancing effect was observed | manganese content-enhancing effect in spinach (spinach; spraying, 1 ppm once a day): manganese content-enhancing effect was observed | zinc content-enhancing effect in spinach (spinach; spraying, 1 ppm once a day): zinc content-enhancing effect was observed | calcium content-enhancing effect in barley (barley [1]; 0.1, 0.3, or 1 ppm in water culture medium A): calcium content-enhancing effect was observed | zinc content-enhancing effect in barley (barley [1]; 0.1 or 0.3 ppm in water culture medium A): zinc content-enhancing effect was observed | copper content-enhancing effect in barley (barley [1]; 0.1 or 0.3 ppm, water culture medium A and twofold concentration of medium A): copper content-enhancing effect was observed | manganese content-enhancing effect in barley (barley [1]; 0.3 or 1 ppm in water culture medium A): manganese content-enhancing effect was observed | iron content-enhancing effect in barley (barley [1]; 1 or 3 ppm, twofold concentration of water culture medium A): iron content-enhancing effect was observed | calcium content-enhancing effect in barley (barley [1]; 30 ppm in water culture medium, Comparative Example 1): calcium content-enhancing effect was not observed | manganese content-enhancing effect in barley (barley [1]; 30 ppm in water culture medium, Comparative Example 2): manganese content-enhancing effect was not observed | iron content-enhancing effect in barley (barley [1]; 30 ppm in water culture medium, Comparative Example 3): iron content-enhancing effect was not observed | copper content-enhancing effect in barley (barley [1]; 30 ppm in water culture medium, Comparative Example 4): copper content-enhancing effect was not observed | zinc content-enhancing effect in barley (barley [1]; 30 ppm in water culture medium, Comparative Example 5): zinc content-enhancing effect was not observed | magnesium content-enhancing effect in barley (barley [1]; 30 ppm in water culture medium, Comparative Example 6, FIG. 6): magnesium content-enhancing effect was not observed | manganese content-enhancing effect in radish (radish; FIG. 7): manganese content-enhancing effect was observed | zinc content-enhancing effect in radish (radish; FIG. 8): zinc content-enhancing effect was observed | iron content-enhancing effect in potato (potato; FIG. 9): iron content-enhancing effect was observed | magnesium content-enhancing effect in potato (potato; FIG. 10): magnesium content-enhancing effect was observed | magnesium content-enhancing effect in barley (barley [2]): magnesium content-enhancing effect was observed
